The values that follow come from PMC6207618, “The GbsR Family of Transcriptional Regulators: Functional Characterization of the OpuAR Repressor” (Frontiers in Microbiology, 2018).

“Also recorded” adds a separate entry of the source. Read-outs that look alike come from different tables or passages of the source.

One test concerns B. infantis NRRL B-14911. In words: Osmostress protection assay of B. infantis. In kind it is cell-based, Bacillus infantis. The following applies: basal medium with 0.9 M NaCl, 1 mM osmostress protectant, 29 h, 37°C. The protocol: Bacterial strains were propagated in Luria–Bertani (LB) liquid media at 37°C or plated on LB agar plates. The B. infantis strain NRRL B-14911 was grown in MOPS-buffered basal medium [50 mM MOPS (pH 7.5), 50 mM MgSO4, 10 mM KCl, 10 mM CaCl2, 190 mM NH4Cl, 0.33 mM K2HPO4, 0.1 mM FeSO4] supplemented with 0.5% glucose (wt/vol) as a carbon source, 0.4% casamino acids (wt/vol), 5 ml l^-1 vitamin solution A (7.8 mg l^-1 biotin, 15.6 mg l^-1 nicotinic acid, and 15.6 mg l^-1 lipoic acid; pH adjusted to 7.5), and 5 ml l^-1 vitamin solution B (15.6 mg l^-1 pantothenic acid, 15.6 mg l^-1 pyridoxine-HCl, 15.6 mg l^-1 thiamine, 15.6 mg l^-1 p-aminobenzoic acid, and 0.32 mg l^-1 cobalamin) ([Gonzalez et al., 1997]). In main cultures used for osmostress protection assays, casamino acids were left out from the growth medium. The osmolarity of growth media was adjusted by the addition of NaCl from a 5 M NaCl stock solution. If desired, osmostress protectants were added to the medium of B. infantis NRRL B-14911 cultures at a final concentration of 1 mM. For growth experiments, liquid cultures of B. infantis NRRL B-14911 were grown in 100-ml Erlenmeyer flasks containing 20-ml of medium in a water bath set to 37°C with vigorous shaking (set to 220 rpm). Pre-cultures of strains were propagated to mid-exponential growth phase in basal medium (with 0.4% casamino acids) and were then used to inoculate fresh basal medium (without casamino acids) to an optical density at 578 nm (OD578) of 0.1. Liquid cultures of B. subtilis strains were grown at 37°C in Spizizen’s minimal medium (SMM) ([Harwood and Archibald, 1990]) with 0.5% glucose as carbon source and a solution of trace elements ([Harwood and Cutting, 1990]). L-Tryptophan (20 mg l^-1) and L-phenylalanine (18 mg l^-1) were added to SMM-derived growth media to satisfy the auxotrophic needs of the B. subtilis strain JH642 (trpC2 pheA1) ([Smith et al., 2014]) and its derivatives (Supplementary Table S1). Cultures (20-ml in 100-ml Erlenmeyer flasks) of B. subtilis strains were inoculated from exponentially growing pre-cultures in SMM to an OD578 of 0.1 and were incubated in a shaking water bath (set to 220 rpm) at 37°C. If needed, the osmolarity of the growth medium was increased by the addition of NaCl (from 5 M stock solutions prepared in H2O). Compatible solutes were filter sterilized and added to the growth medium of B. subtilis strains from 100 mM stock solutions to a final concentration of 1 mM unless otherwise explicitly stated in the text.
(A) Influence of increasing salinity on the growth of B. infantis NRRL B-14911. Cultures were grown in basal medium adjusted to the indicated salinity. Growth yields were measured after 30 h of incubation at 37°C. (B) Osmostress protection assays were carried out in basal medium supplemented with 0.9 M NaCl and in the presence of 1 mM of the indicated osmostress protectants. After 29 h of incubation at 37°C, growth yields were determined by measuring the OD578 of the cultures. (C) Substrate specificity of the B. infantis OpuA transporter. The opuA operon (and its flanking opuAR gene) of B. infantis NRRL B-14911 was heterologously expressed in a derivative of B. subtilis JH642, lacking all uptake system for compatible solutes except for the L-proline-specific OpuE transporter ([Hoffmann and Bremer, 2017]; [Teichmann et al., 2017]). Growth assays were conducted in minimal medium (SMM), either in the absence or presence of 1.2 M NaCl and 1 mM of the indicated osmostress protectants. After 18 h of incubation at 37°C, the optical densities (OD578) of the cultures were measured. The given values are the means and standard deviations of four independent biological replicates.
Next, we studied the possible osmostress protection of B. infantis NRRL B-14911 by various exogenously provided compatible solutes.

A further test has as its target OpuAR (Bacillus infantis, UniProt U5LJR5). The experiment in a line: Intrinsic tryptophan fluorescence ligand binding, purified OpuAR (wild type). The protocol: Overproduction of the OpuAR repressor protein and its mutant derivatives was carried out in the E. coli B strain BL21 harboring plasmid pMP_AR1, a derivative of the expression vector pASK-IBA3plus (IBA, Göttingen, Germany) (Supplementary Table S3). […] De-repression of P-tet promoter activity is achieved by adding the synthetic inducer AHT to the growth medium. Cultures of the E. coli B. strain BL21 (pMP_AR1) were inoculated (to a OD578 of 0.1) from pre-cultures prepared in MMA ([Miller, 1972]) supplemented with 0.5% glucose (wt/vol) as the carbon source, 0.5% casamino acids (wt/vol), 1 mg l^-1 thiamine, and 1 mM MgSO4. The cultures also contained ampicillin (100 μg ml^-1) to select for the presence of plasmid pMP_AR1 (or its mutant derivatives) and they were grown at 37°C. When the main cultures reached an OD578 of 0.5, enhanced expression of the opuAR gene from P-tet was induced by the addition of AHT to a final concentration of 0.2-μg ml^-1. Cells were grown for an additional 2 h, before they were harvested by centrifugation (at 4°C at 4,800 × g for 20 min). […]
The dissociation constants of OpuAR for choline and glycine betaine were determined by intrinsic tryptophan fluorescence spectroscopy as described previously using a Carry Eclips fluorescence spectrometer (Varian, Surry, United Kingdom) ([Pittelkow et al., 2011]; [Nau-Wagner et al., 2012]).

The target in a further test is B. subtilis GbsR protein. The arrangement: method as in Nau-Wagner et al., 2012. The settings on record: purified B. subtilis GbsR, ref Nau-Wagner et al., 2012, cited from earlier work.

Chain of OpuAR (U5LJR5 entry or part of it): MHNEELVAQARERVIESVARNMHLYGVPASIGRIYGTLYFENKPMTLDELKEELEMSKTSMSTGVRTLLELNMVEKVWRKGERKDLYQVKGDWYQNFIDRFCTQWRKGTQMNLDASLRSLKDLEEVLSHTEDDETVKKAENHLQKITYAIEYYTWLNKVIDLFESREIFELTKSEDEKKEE

Take `CN(C)CC(=O)O` [DMG, dimethlyglycine]: the “Osmostress protection (growth yield OD578)” value (“Osmostress protection” for short) in the test with B. infantis NRRL B-14911 was “moderate level of osmostress protection”.
Still for that read-out and setting: the entry for `C[S+](C)CCC(=O)[O-]` [DMSP, dimethylsulfoniopropionate] is “moderate level of osmostress protection”.
A word on the Kd: it is the constant that tells how readily two partners part at equilibrium. For the compound `C[N+](C)(C)CCO` [choline], the Kd on OpuAR was 193 ± 40 µM; on B. subtilis GbsR protein (intrinsic Trp-fluorescence), 165 ± 15 µM. Moreover, in the test with B. infantis NRRL B-14911, the “Osmostress protection” value is “not osmostress protective; also recorded: does not serve as an osmostress protectant”.
Turning to `C[N+](C)(C)CC(=O)[O-]` [glycine betaine], the dissociation constant Kd on OpuAR (purified OpuAR-Strep-tag II wild type, 5 μM protein, read-out: Kd) amounted to 301 ± 24 µM. Also, the “Binding by GbsR” value with B. subtilis GbsR protein is reported as “does not bind”. The “Osmostress protection” value with B. infantis NRRL B-14911 is “substantial level of osmostress protection”.
`C[N+](C)(C)CCC(=O)[O-]` [homobetaine]: the “Osmostress protection” value with B. infantis NRRL B-14911 was “moderate level of osmostress protection”.
In the case of `C[N+]1(C)CCC[C@H]1C(=O)[O-]` [proline betaine], the “Osmostress protection” value with B. infantis NRRL B-14911 is given as “substantial level of osmostress protection”.
